According to paper PMC4523340 (British Journal of Pharmacology, 2015):
Where a name gives a salt, the structure may show the parent alone.

Assays:
5-HT7(a) receptor = 5-HT7(a) receptor (Homo sapiens, UniProt P34969); test: saturation radioligand binding, membranes; details: read-out: [^3H]-mesulergine / Kd; labelled compound; stable HEK293
5-HT7(b) receptor [1] = target: T1, 5-HT7(b) receptor (Homo sapiens, UniProt P34969)
5-HT7(d) receptor = 5-HT7(d) receptor (Homo sapiens, UniProt P34969); test: saturation radioligand binding, membranes; details: read-out: [^3H]-mesulergine / Kd; labelled compound; stable HEK293
5-HT7(b) receptor [2] = target: T1, 5-HT7(b) receptor; test: saturation radioligand binding, membranes; details: read-out: [^3H]-mesulergine / Kd; labelled compound; stable HEK293

T1 sequence (P34969 1-432 limits assumed): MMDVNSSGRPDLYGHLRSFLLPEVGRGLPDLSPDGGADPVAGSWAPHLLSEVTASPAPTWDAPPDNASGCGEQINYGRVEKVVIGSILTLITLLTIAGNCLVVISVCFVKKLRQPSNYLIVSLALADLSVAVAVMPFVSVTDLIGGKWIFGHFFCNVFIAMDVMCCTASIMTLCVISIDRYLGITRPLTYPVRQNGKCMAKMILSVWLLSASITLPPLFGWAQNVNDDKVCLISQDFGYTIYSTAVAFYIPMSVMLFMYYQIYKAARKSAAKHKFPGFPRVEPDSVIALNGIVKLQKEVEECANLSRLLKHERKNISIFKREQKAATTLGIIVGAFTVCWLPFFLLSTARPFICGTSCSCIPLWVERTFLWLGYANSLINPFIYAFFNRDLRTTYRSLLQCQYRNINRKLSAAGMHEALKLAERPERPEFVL
Chain of 5-HT7(a) receptor (P34969 1-445 isoform P34969-2): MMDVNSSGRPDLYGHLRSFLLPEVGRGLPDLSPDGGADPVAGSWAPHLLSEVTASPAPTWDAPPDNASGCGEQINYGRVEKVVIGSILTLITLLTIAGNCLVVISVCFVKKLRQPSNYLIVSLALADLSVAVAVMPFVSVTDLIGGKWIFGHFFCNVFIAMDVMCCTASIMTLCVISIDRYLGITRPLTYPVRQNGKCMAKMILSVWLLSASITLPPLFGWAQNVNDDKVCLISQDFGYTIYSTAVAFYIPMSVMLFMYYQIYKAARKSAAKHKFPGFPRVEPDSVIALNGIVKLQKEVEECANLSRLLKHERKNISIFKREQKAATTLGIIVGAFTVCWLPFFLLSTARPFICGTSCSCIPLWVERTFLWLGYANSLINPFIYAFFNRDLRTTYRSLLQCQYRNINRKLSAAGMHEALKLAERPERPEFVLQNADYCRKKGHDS
Chain of 5-HT7(d) receptor (P34969 whole entry): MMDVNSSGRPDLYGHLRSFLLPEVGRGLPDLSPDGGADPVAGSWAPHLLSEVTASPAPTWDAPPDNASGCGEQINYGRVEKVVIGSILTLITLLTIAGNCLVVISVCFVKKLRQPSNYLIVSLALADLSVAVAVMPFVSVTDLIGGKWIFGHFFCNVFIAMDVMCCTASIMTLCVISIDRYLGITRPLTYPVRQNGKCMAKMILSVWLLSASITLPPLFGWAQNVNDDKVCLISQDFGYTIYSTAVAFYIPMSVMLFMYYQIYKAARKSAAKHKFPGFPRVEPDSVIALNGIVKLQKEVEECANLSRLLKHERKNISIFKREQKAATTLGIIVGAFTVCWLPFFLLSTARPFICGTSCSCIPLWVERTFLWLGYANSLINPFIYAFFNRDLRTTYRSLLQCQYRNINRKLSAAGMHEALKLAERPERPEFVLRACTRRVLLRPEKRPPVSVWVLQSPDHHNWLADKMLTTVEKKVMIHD

## CN1C[C@@H](NS(=O)(=O)N(C)C)C[C@@H]2c3cccc4c3c(cn4C)C[C@H]21 [mesulergine, N′-[(8a)-1,6-dimethylergolin-8-yl]-N,N-dimethylsulfamide hydrochloride]
5-HT7(a) receptor
  Kd: 9.2 ± 1.6 nM
5-HT7(b) receptor [1]
  pEC50: 8.7 ± 0.1
5-HT7(d) receptor
  Kd: 9.6 ± 1.2 nM
5-HT7(b) receptor [2]
  Kd: 6.2 ± 0.7 nM
